Measurements reported in patent publication US20220339134A1, “VERY-LONG-CHAIN POLYUNSATURATED FATTY ACIDS, ELOVANOID HYDROXYLATED DERIVATIVES, AND METHODS OF USE” (Board of Supervisors of Louisiana State University and …, priority 2019, published 2022).

Legend:
[1] = test system: hypothalamus, SAT and VAT; test: Adiponectin levels in diabetic hypothalamus and adipose tissue; design: species or system db/db mice
db/db mice hypothalamus = test: IL6 (marker of SASP) induced by IL1β in diabetic mouse hypothalamus; format: cell-based
Source text: Different effects have been observed in female and male mice.

RPE and PRC = test: Subretinal injection of OAβ in WT mice +/- ELVs (RPE flat mount, OCT, qPCR, Western blot); format: in vivo; conditions: for OAβ-activated senescence program (p16INK4a, MMP1, p53, p21, p27, Il-6, SASP secretome) followed by RPE and PRC demise: summary of mouse and human RPE data
Source text: (A) In vivo experimental design: 6-month-old C57BL/6J WT mice were divided into 7 groups (n=12/group): non-injected, PBS, OAβ only, OAβ+ELV-N-32, OAβ+ELV-N-34, ELV-N-32 only and ELV-N-34 only. On day 3, mRNA were isolated for Real-Time PCR. On day 7, mice were subjected to OCT and then eyes enucleated and processed for whole mount RPE staining and Western blots. (B) Whole flat mount of RPE with tight junction marker, Zonula occludens-1 (ZO-1) antibody. OAβ disrupted RPE morphology. (C) OAβ effects on retina and RPE by OCT. (D) Thickness of PRC layer was thinner in OAβ injected group. (E) RPE gene expression after Oaβ (1-42) injection and treatment with ELVs. (E-G) Gene expression in the same functional group were plotted. Senescence- and AMD-related genes (E), and collagenases, gelatinase, stromelysins and others matrix metalloproteinases (MMP) (F) and autophagy (G). (H) p16INK4a, a key marker for senescence, western blots of RPE. (I) Retina apoptosis gene expression after OAβ (1-42) injection and treatment with ELVs. (*P<0.05, student t-test).
ELVs restore RPE morphology and reduce gene expression after subretinal injection of OAβ in WT mice. (A) Mice were divided into 7 groups: non-injected, PBS, OAβ only, OAβ+ELV-N-32, OAβ+ELV-N-34, ELV-N-32 only and ELV-N-34 only. On day 3, mRNA were isolated for RT-PCR. On day 7, mice were subjected to OCT and then eyes were enucleated and processed to whole mount RPE staining and Western blot. (B) Whole flat mount of RPE. OAβ disrupted RPE morphology. However, RPE were less damage in the ELVs treatment group as well as PBS, ELVs alone did non induce changes. (C) Evaluation the OAβ effects on retina and RPE by OCT. (D) The thickness of PRC was thin in the OAβ injected group. OAβ cause the cell death of PRC, as the thinner in OCT measurement. (E) RPE gene expression after OAβ (1-42) injection and treatment with ELVs. 3 days after injection, the RNAs from RPE were isolated, reverse transcribed into cDNA and subjected to RT-PCR with different primers. Genes in the same functional group were plotted in the same chart, including senescence- and AMD-related genes (E), and collagenases, gelatinase, stromelysins and others matrix metalloproteinases (MMP) (F) and autophagy (G). (H) p16INK4a western blots of RPE/Choroid. […] (I) Retina gene expression after OAβ (1-42) injection and treatment with ELVs. OAβ activates apoptosis genes in the retina. […] (*P<0.05, using student t-test comparison).
All animal experiments were performed according to ARVO Statement for the Use of Animals in Ophthalmic and Vision Research, and the protocol was approved by LSU Health New Orleans' Institutional Animal Care and Use Committee (IACUC). 6-month-old 5×FAD mice (stock number: 34848-JAX, The Jackson Laboratory, Bar Harbor, Me., USA), co-overexpress FAD mutant forms of human amyloid precursor protein (the Swedish mutation: K670N, M671L; the Florida mutation: I716V; and the London mutation: V7171) and presenilin 1 (PS1, encoded by Psen1: M146L, L286V) transgenes under transcriptional control of the neuron-specific mouse Thy1 promoter. 5×FAD mice were hemizygotes with respect to the transgenes and non-transgenic WT littermates. Genotyping was performed by PCR of tail DNA. All analyses were carried out blind with respect to the mice genotype. For the subretinal injection, 6-month-old C57BL/6J mice were anesthetized by an intraperitoneal injection of ketamine/xylazine, pupils dilated with 1.0% tropicamide (Akorn, Ill., USA); and 0.5% Proparacaine Hydrochloride (Akorn) was applied for topical anesthesia. Eyes were punctured with a 30-gauge needle between the corneoscleral junction and the ora serrata into the vitreous cavity without disturbing the lens. Compounds were delivered to the subretinal region using a 33-gauge blunt needle attached to a 5p.1 Hamilton syringe (Hamilton Company, Reno, Nev., USA) under a dissecting microscope. Non-injected mice were used as negative control while the PBS injected mice were used for sham. […]

hypothalamic neurons = test: Fluoro-Jade B staining of organotypic hypothalamus slices; format: cell-based, db/db mice; conditions: 500 nM, 48 h incubation; db/db hypothalamus slices
Experimental: Fluoro-Jade b (F-Jb) stains degenerating neurons. […] 48 h incubation with 500 nM ELV34 elicited neuroprotection that was reflected in the decrease of F-Jb signal (a).

[2] = methyl ester or sodium salt; administered 1 hour following 2 hours of ischemia; cited from earlier work
[3] = test system: human diabetic and non-diabetic adipocytes; test: TP53 and IL8 expression (Taqman Real time PCR) in human adipocytes treated with IL1β; format: cell-based
Experimental: A) experimental design. B) expression levels of TP53 and IL8 in human diabetic and non-diabetic adipocytes by the means of Taqman Real time PCR.
IL1β is a cytokine that induce insulin resistance in adipocytes 18 • Similarly, IL8 was elevated by IL1β and brought down around 40 folds by 500 nM ELV34 in both diabetic and non-diabetic adipocytes. Even though the mechanisms are unknown ELV34 can be a therapeutic agent to stop or halt damaging signaling observed in diabetic patients.

[4] = co-injected with OAβ subretinally, then topical ELV, day 7

For `CC/C=C\C[C@H](O)\C=C/C=C/C=C/[C@H](O)C/C=C\C/C=C\CCCCCCCCCCCCCCC(=O)O` [ELV-N-34], the “adiponectin in subcutaneous (SAT) and visceral adipose tissue (VAT)” value [1] was “Differential effect”, the “levels of Adiponectin” value ([1]; ELV34 treatment) was “increased” and the “adiponectin in diabetic hypothalamus” value ([1]; female and males) was “trend of increase”. For the same molecule, the “levels of IL6 (marker of SASP)” value (db/db mice hypothalamus) was “reduced”, the “PRC degeneration / ONL after ELV injected alone” value (RPE and PRC; ELV alone, no OAβ, subretinal) was “did not yield PRC degeneration” and the “PRC protection (PRC layer, OCT)” value (RPE and PRC; [4]) was “protection of PRC”. The “RPE morphology (ZO-1 whole flat mount)” value (RPE and PRC; [4]) was “restoration of RPE morphology”, the “p16INK4a protein (western blot of RPE/Choroid)” value (RPE and PRC; elevated by OAβ injection, day 7) was “down regulated” and the “OAβ-activated senescence program (p16INK4a, MMP1, p53, p21, p27, Il-6, SASP secretome) followed by RPE and PRC demise” value (“OAβ-activated senescence program” below) (RPE and PRC) was “blunt these events and elicit protection to both cells”. For the same molecule, the “OAβ-activated senescence program” value (RPE and PRC; listed as ELV 34) was “downregulatory mediators of OAβ-evoked senescence”, the “OAβ-activated senescence program” value (RPE and PRC; listed as elovanoid 34) was “blunt these events and elicits protection” and the “F-Jb signal (degenerating neurons)” value (hypothalamic neurons) was “decrease”. The cell survival [2] was “promoted cell survival”, the infarct volumes [2] was “reduced infarct volumes” and the neurovascular unit disruption [2] was “diminished neurovascular unit disruption”. For the same molecule, the IL8 brought down ([3]; 500 nM, IL1β-elevated, diabetic and non-diabetic adipocytes) was “around 40 folds”, the “levels of TP53 mRNA” value ([3]; adipocytes from diabetic patient treated with IL1β) was “down to non-diabetic control levels” and the “effect of IL1β (TP53 and IL8 expression)” value ([3]; human diabetic adipocytes) was “revert the effect of IL1β”.
